We go through 90 compounds from the Bradley open melting point set (2014).

“And” between values parts separate entries of the source, which are not always exact repeats. Equal values may be shown once.

As usually defined, the melting point is the temperature, or range, at which the solid turns liquid.

In turn, `C=Cc1ccc(Cl)cc1` [4-chlorostyrene] returned a melting point of -16 °C.
The compound `O=C(c1ccccc1)C(O)c1ccccc1` (stereo not given) [Benzoin] had a melting point of 137 °C.
In turn, `CC(=O)Nc1ccc(F)cc1F` [2',4'-difluoroacetanilide] yielded a melting point of 122 °C.
To `Cc1ccnc2ccccc12` [lepidine] belongs 10 °C; to `OCc1ccccc1-c1ccccc1` [o-phenylbenzyl_alcohol], 50 °C; to `CC(=O)c1cccc(N=C=S)c1` [3-acetylphenyl isothiocyanate], 24 °C.
To `Cc1occc1C(=O)O` [2-methyl-3-furoic acid] belongs 98 °C; to `CCOC(=O)c1cc(C)n(-c2ccc(C)cc2)c1C` [OSM-S-30], 61 °C.
Regarding `CCCCOC(=O)c1ccc(N)cc1` [Butyl 4-aminobenzoate], the melting point worked out at 58 °C.
To `O=Cc1ccc(Oc2ccccc2)cc1` [4-phenoxybenzaldehyde] belongs 25 °C.
Consider `O=C(CCl)Nc1cccc([N+](=O)[O-])c1` [2-chloro-3'-nitroacetanilide], for which the melting point is 114 °C.
The result for `NC(=O)c1cccc(O)c1` [m-hydroxybenzamide] reads 170 °C.
In the case of `O=C[C@H](O)[C@@H](O)[C@H](O)[C@H](O)CO` [D-glucose, anhydrous], the melting point worked out at 151 °C.
The result for `COC(=O)c1ccc(O)cc1` [methyl p-hydroxybenzoate] reads 131 °C; that for `Cc1nc(/C(C#N)=C\c2ccc(Cl)cc2Cl)sc1/N=N/c1ccc(F)cc1`, 139 °C; that for `ClC1C(Cl)C(Cl)C(Cl)C(Cl)C1Cl` (stereo not given) [Lindane], 114 °C.
In turn, `CCCCOCCOCCO` [diethylene glycol mono-n-butyl ether] yielded a melting point of -68 °C.
For the compound `Nc1ccccc1Br` [o-bromoaniline], the melting point is 30 °C.
For the compound `CC(C)CB(O)O` [isobutylboronic acid], the melting point amounted to 109 °C.
To `NC(=O)OCC(COC(N)=O)c1ccccc1` [Felbamate] belongs 152 °C.
`OB(O)c1cc(Cl)ccc1Cl` [2,5-dichlorobenzeneboronic acid] showed a melting point of 213 °C.
The result for `OCCc1ccc(O)cc1` [2-(4-hydroxyphenyl)ethanol] reads 91 °C.
The compound `O=C(O)Cc1cccc(Cl)c1` [3-chlorophenylacetic acid] showed a melting point of 79 °C.
`COc1ccc(CBr)c(Cl)c1` [2-chloro-4-methoxybenzyl bromide] gave a melting point of 57 °C.
As to `N[C@@H](CCC(=O)O)C(=O)O` [L-Glutamic Acid], the melting point turned out to be 224 °C.
To `Cl/C=C/CCl` [1,3-dichloropropene, cis trans] belongs -84 °C; to `CCCCCCCCCCCCCCCCCCO` [1-octadecanol], 61 °C; to `OCCCCC(O)CO` (stereo not given) [1,2,6-hexanetriol], -20 °C.
The result for `COc1ccc2c(c1)no[n+]2[O-]` [5-methoxybenzofuroxan] reads 117 °C.
As to `Cc1ccc(/C=C(\Oc2cccc(C)c2)c2nc3ccccc3s2)cc1`, the melting point was 138 °C.
To `O=[N+]([O-])c1cc[n+]([O-])c2ccccc12` [4-nitroquinoline n-oxide] belongs 155 °C; to `CO` [methanol], -98 °C (6×) and -97.5 °C.
The result for `Cc1[nH]c(C)c(C)c1C` [2,3,4,5-tetramethylpyrrole] reads 105 °C; that for `O=c1n(CCO)c(=O)n(CCO)c(=O)n1CCO` [1,3,5-tris(2-hydroxyethyl)cyanuric acid], 138 °C; that for `NC1CONC1=O` (stereo not given) [Cycloserine], 147 °C.
In the case of `O=C(O)c1ccc2c(c1)no[n+]2[O-]` [benzofuroxan-5-carboxylic acid], the melting point was determined as 128 °C.
`O=C5\C=C3/[C@]([C@H]2CC[C@@]4([C@@H](OC(=O)CCc1ccccc1)CC[C@H]4[C@@H]2CC3)C)(C)CC5` [testosterone phenylpropionate]: the melting point was found to be 116 °C.
The result for `CCCCCCCC/C=C\CCCCCCCCCCCC(N)=O` [(13Z)-Docos-13-enamide] reads 79 °C.
To `Cc1ccc(CCc2ccc(C)cc2)cc1` [1,2-di(p-tolyl)ethane] belongs 81 °C.
With `Cc1cc(C)c(Br)c(C)c1Br` [2,4-dibromomesitylene], the melting point was 60 °C.
On to `CCOc1ccccc1OCC` [1,2-diethoxybenzene], for which the melting point is 44 °C.
With `C=C(C)Cn1c(N)cc(=O)n(C)c1=O` [Uracil, 6-amino-3-methyl-1- (2-methylallyl)-], the melting point stood at 175 °C.
The result for `Oc1ccc(O)cc1` [hydroquinone] reads 172 °C.
The compound `CC(Br)C(Br)C(=O)O` (stereo not given) [2,3-dibromobutyric acid] showed a melting point of 86 °C.
In the case of `Cc1c(N)c(=O)n(-c2ccccc2)n1C` [4-aminoantipyrine], the melting point was 108 °C.
For `C=Cc1cccc([N+](=O)[O-])c1` [m-nitrostyrene], the melting point is -5 °C.
To `CCOC(=O)c1ccc(N)cc1` [Ethyl 4-aminobenzoate] belongs 89 °C; to `CC(C)Br` [2-bromopropane], -89 °C; to `O=C(O)c1cccc([N+](=O)[O-])c1` [m-nitrobenzoic_acid], 142 °C.
The compound `CC(=O)Nc1ccccc1` [Acetanilide] registered a melting point of 114 °C.
To `O=C(O)CCP(=O)(O)O` [3-phosphonopropionic acid] belongs 164 °C; to `c1ccc(-c2cccc(-c3ccccc3)c2)cc1` [m-terphenyl], 87 °C; to `C=C(C)c1ccccc1` [alpha-methylstyrene], -23 °C.
The result for `O=c1cc(CO)occ1O` [kojic acid] reads 154 °C.
The result for `COc1cc(OC)c2c(c1Cl)O[C@]1(C2=O)C(OC)CC(=O)C[C@H]1C` (stereo not given in full) [griseofulvin] reads 220 °C.
`CC(C)(C)NCC(O)COc1cccc2c1C[C@H](O)[C@H](O)C2` (stereo not given in full) [Nadolol] registered a melting point of 124 °C.
To `O=[N+]([O-])c1cccc(O)c1` [3-Nitrophenol] belongs 97 °C; to `CC=O` [Acetaldehyde], -124 °C.
Compound `COC(=O)c1ccc(O)cc1` [Methyl 4-hydroxybenzoate] showed a melting point of 127 °C.
The compound `c1ccc([Si]2(c3ccccc3)O[Si](c3ccccc3)(c3ccccc3)O[Si](c3ccccc3)(c3ccccc3)O2)cc1` [hexaphenylcyclotrisiloxane] had a melting point of 180 °C.
To `Fc1ccc(N2CCNCC2)cc1` [1-(4-fluorophenyl)piperazine] belongs 32 °C; to `O=[N+]([O-])c1ccc(I)cc1` [1-Iodo-4-nitrobenzene], 176 °C; to `CCC(=O)OC(Cc1ccccc1)(c1ccccc1)C(C)CN(C)C` (stereo not given) [propoxyphene], 75 °C.
The result for `OB(O)c1ccc(F)c(Cl)c1` [3-chloro-4-fluorobenzeneboronic acid] reads 258 °C; that for `CCCN` [1-propylamine], -83 °C.
The compound `Cc1cccc(N)c1` [m-toluidine] had a melting point of -30 °C.
Consider `ClC1=C(Cl)C2(Cl)C3C4OC4C(Cl)C3C1(Cl)C2(Cl)Cl` (stereo not given) [Heptachlor epoxide], for which the melting point stood at 160 °C.
The result for `Cc1c(C2(c3cc(C(C)C)c(O)c(Br)c3C)OS(=O)(=O)c3ccccc32)cc(C(C)C)c(O)c1Br` [bromothymol blue] reads 201 °C; that for `O=C1c2ccccc2C(=O)N1CCCCCCBr` [N-(6-bromohexyl)phthalimide], 57 °C; that for `CC[C@H](C)[C@H](NC(=O)OCC1c2ccccc2-c2ccccc21)C(=O)O` [N-fmoc-L-isoleucine], 147 °C.
The result for `O=C(CCCN1CCC(O)(c2ccc(Cl)cc2)CC1)c1ccc(F)cc1` [Haloperidol] reads 148 °C.
To `Cc1ccc(C(=O)O)cc1` [p-toluic_acid] belongs 182 °C.
In the case of `C[C@H](NC(=O)OC(C)(C)C)C(=O)O` [N-boc-L-alanine], the melting point was 82 °C.
In the case of `CSc1ccccc1B(O)O` [2-(methylthio)benzeneboronic acid], the melting point came out at 160 °C.
On to `CC(c1cc2ccccc2s1)N(O)C(N)=O` (stereo not given) [Zileuton], for which the melting point was 145 °C.
`C#C[C@]1(O)CC[C@H]2[C@@H]3CCC4=CC(=O)CC[C@@H]4[C@H]3CC[C@@]21CC` [Norgestrel] yielded a melting point of 206 °C.
To `c1c[nH]nn1` [1h-1,2,3-triazole] belongs 24 °C.
To `O=C(O)/C=C\C(=O)O` [(2Z)-But-2-enedioic acid] belongs 138 °C; to `COC(=O)c1ccc2cc(Br)ccc2c1` [methyl 6-bromo-2-naphthoate], 122 °C.
The result for `C[C@]12CC[C@H]3[C@@H](CCC4=CC(=O)CC[C@@H]43)[C@@H]1CC[C@@H]2O` [Nandrolone] reads 112 °C; that for `CC[C@H](C)C(=O)O[C@H]1C[C@@H](C)C=C2C=C[C@H](C)[C@H](CC[C@@H]3C[C@@H](O)CC(=O)O3)[C@H]21` [lovastatin], 175 °C.
The compound `NC(=O)CS(=O)C(c1ccccc1)c1ccccc1` (stereo not given) [modafinil] had a melting point of 164 °C.
The compound `Oc1ccc(Br)cc1Br` [2,4-dibromophenol] came in with a melting point of 40 °C.
To `O=[N+]([O-])c1cccc(CO)c1` [3-nitrobenzyl_alcohol] belongs 32 °C; to `NC(=S)N1CCCCC1` [piperidine-1-thiocarboxamide], 128 °C; to `O=C(O)C1C(C(=O)O)C2(Cl)C(Cl)=C(Cl)C1(Cl)C2(Cl)Cl` (stereo not given), 240 °C.
To `OCC(F)(F)F` [2,2,2-Trifluoroethanol] belongs -43.5 °C.
To `Ic1ccccc1` [iodobenzene] belongs -31 °C; to `OB(O)c1cc(C(F)(F)F)ccc1F` [2-fluoro-5-(trifluoromethyl)benzeneboronic acid], 107 °C; to `COc1cc2nc(N3CCN(C(=O)C4COc5ccccc5O4)CC3)nc(N)c2cc1OC` (stereo not given) [Doxazosin], 290 °C.
